System: SARS-CoV-2
Assay: microbe, parasite or virus in culture
Conditions: Severe acute respiratory syndrome coronavirus 2, Vero C1008, 48 h

SMILES | IC50 | IC50 (read-out: pIC50 (converted))
COC(=O)CCC(C)C1CCC2C3CC[C@@H]4C[C@H](O)CC[C@]4(C)C3C[C@H](O)[C@]12C (stereo partly specified) | > 20 µM | > 20 µM
CO[C@H]1C[C@@H]2CC[C@@H](C)[C@@](O)(O2)C(=O)C(=O)N2CCCC[C@H]2C(=O)O[C@H]([C@H](C)C[C@@H]2CC[C@@H](OP(C)(C)=O)[C@H](OC)C2)CC(=O)[C@H](C)/C=C(/C)[C@@H](O)[C@@H](OC)C(=O)[C@H](C)C[C@H](C)\C=C/C=C\C=C/1C | > 20 µM | > 20 µM
CC(C)=CCC1C(=O)N(c2ccccc2)N(c2ccccc2)C1=O [FEPRAZONE] | > 20 µM | > 20 µM
C[C@@H]1CC(=O)NN=C1c1ccc2c(c1)OCC(=O)N2 | > 20 µM | > 20 µM
CC12CCC3C(CCC4CC(N)C(O)CC43C)C1CCC2=O (stereo unspecified) | > 20 µM | > 20 µM
O=C(O)C(=O)CBr [BROMOPYRUVATE] | > 20 µM | > 20 µM
O=C(O)CC(O)C(=O)O (stereo unspecified) [MALIC ACID] | > 20 µM | > 20 µM
COc1cc2ncnc(Nc3ccc(F)c(Cl)c3)c2cc1NC(=O)/C=C/CN1CCCCC1 [DACOMITINIB ANHYDROUS] | > 20 µM | > 20 µM
C[C@H](Cn1cnc2c(N)ncnc21)OCP(=O)(O)O [TENOFOVIR ANHYDROUS] | > 20 µM | > 20 µM
CN(C)CCN(Cc1ccccc1)c1ccccc1 | > 20 µM | > 20 µM
CCN(CC)CCOC(=O)C(O)(c1ccccc1)c1ccccc1 [BENACTYZINE] | > 20 µM | > 20 µM
CC[C@@H]1CCN[C@H](C(=O)N[C@H]([C@H]2O[C@H](SC)[C@H](O)[C@@H](O)[C@H]2O)[C@H](C)Cl)C1 | > 20 µM | > 20 µM
CC(c1cc2ccccc2s1)N(O)C(N)=O (stereo unspecified) [ZILEUTON] | > 20 µM | > 20 µM
OC(CCN1CCCCC1)(c1ccccc1)C1CCCC1 (stereo unspecified) [CYCRIMINE] | > 20 µM | > 20 µM
C#CCOC[C@@H]1CO[C@@](Cn2ccnc2)(c2ccc(Cl)cc2Cl)O1 | > 20 µM | > 20 µM
c1cnc2c(c1)C[C@@]1(CN3CCC1CC3)O2 [AZD0328] | > 20 µM | > 20 µM
COC[C@@H](c1ccc(C(F)(F)F)cc1)N1CCN(C2(C)CCN(C(=O)c3c(C)ncnc3C)CC2)C[C@@H]1C [VICRIVIROC] | > 20 µM | > 20 µM
CC(C)(C)C(=O)Oc1ccc2c(c1)O[C@@H](c1ccc(OCCN3CCCCC3)cc1)C1=C2COc2cc(OC(=O)C(C)(C)C)ccc21 | > 20 µM | > 20 µM
C[N+]1(C)C2CCC1CC(OC(=O)C(O)c1ccccc1)C2 (stereo unspecified) | > 20 µM | > 20 µM
CC(C)(C)NCC(O)c1ccc(O)c(CO)c1 (stereo unspecified) [ALBUTEROL] | > 20 µM | > 20 µM
CNC(C)(C)Cc1ccccc1 [MEPHENTERMINE] | > 20 µM | > 20 µM

SMILES | IC50 | IC50 (read-out: pIC50 (converted))
C[C@H]1[C@H]2C(=O)c3ccc(O)cc3[C@]1(C)CCN2CC1CC1 [KETAZOCINE] | > 20 µM | > 20 µM
Cc1cccc(OCC(O)CNC(C)C)c1 (stereo unspecified) [TOLIPROLOL] | > 20 µM | > 20 µM
CC1(Cn2ccnn2)[C@H](C(=O)O)N2C(=O)C[C@H]2S1(=O)=O (stereo partly specified) | > 20 µM | > 20 µM
O=[N+]([O-])c1cncn1CCN1CCOCC1 [NIMORAZOLE] | > 20 µM | > 20 µM
Cc1nc2cccc(N)c2c(=O)n1C1CCC(=O)NC1=O (stereo unspecified) [AVADOMIDE] | > 20 µM | > 20 µM
CC(C)C[C@H](NC(=O)N1CCCCCC1)C(=O)N[C@H](Cc1cn(C)c2ccccc12)C(=O)N[C@H](Cc1ccccn1)C(=O)O | > 20 µM | > 20 µM
CCCCCCN1CCN(/C(=N/CC(C)C)c2ccccc2)CC1 | > 20 µM | > 20 µM
N=C(N)NCCCNC(=O)[C@@H]1CCCCN1C(=O)[C@H](CC1CCCCC1)NCC(=O)O | > 20 µM | > 20 µM
CCN1CCN(c2cc(-c3ccccc3)c3ccccc3n2)CC1 | > 20 µM | > 20 µM
CN(C)Cc1c[nH]c2ccccc12 [GRAMINE] | > 20 µM | > 20 µM
O=C1Nc2ccc(Cl)cc2C(c2ccccc2Cl)=NC1O (stereo unspecified) [LORAZEPAM] | > 20 µM | > 20 µM
Cc1[nH]cnc1CN1CCc2c(c3ccccc3n2C)C1=O [ALOSETRON] | > 20 µM | > 20 µM
COc1nccnc1NS(=O)(=O)c1ccc(N)cc1 | > 20 µM | > 20 µM
O=C(O)C1N[C@H](C(=O)O)CS1 (stereo partly specified) | > 20 µM | > 20 µM
COc1cc2c(N)nc(N3CCN(C(=O)OCC(C)(C)O)CC3)nc2c(OC)c1OC [TRIMAZOSIN] | > 20 µM | > 20 µM
CC1(N)CCN(c2cccnc2NC(=O)c2nc(-c3ncccc3C(F)(F)F)cnc2N)CC1 [DAROVASERTIB] | > 20 µM | > 20 µM
CN1C(=O)[C@@H](NC(=O)c2n[nH]c(Cc3ccccc3)n2)COc2ccccc21 [GSK2982772] | > 20 µM | > 20 µM
COc1ccc2c(c1)C[C@@H](C)N(CCc1ccc(N)cc1)CC2 | > 20 µM | > 20 µM
O=C(CC(c1ccccc1)c1ccccc1)N1CCN(C(c2ccccc2)c2ccccc2)CC1 [Z160] | > 20 µM | > 20 µM
C/C(=C(\OCCOc1ccc(Cl)cc1)c1ccc(Cl)cc1Cl)n1ccnc1 | > 20 µM | > 20 µM
CCc1nc(N)nc(N)c1-c1ccc(Cl)cc1 [PYRIMETHAMINE] | > 20 µM | > 20 µM

SMILES | IC50 | IC50 (read-out: pIC50 (converted))
CN1CCN(C2=Nc3cc(F)ccc3Cc3ccccc32)CC1 [FLUPERLAPINE] | > 20 µM | > 20 µM
N#CC(O[C@@H]1O[C@H](CO[C@@H]2O[C@H](CO)[C@@H](O)[C@H](O)[C@H]2O)[C@@H](O)[C@H](O)[C@H]1O)c1ccccc1 (stereo partly specified) [VITAMIN B17] | > 20 µM | > 20 µM
CC(=O)c1ccc(S(=O)(=O)NC(=O)NC2CCCCC2)cc1 [ACETOHEXAMIDE] | > 20 µM | > 20 µM
COc1c(C)c2c(c(O)c1C/C=C(\C)CCC(=O)OCCN1CCOCC1)C(=O)OC2 [MYCOPHENOLATE MOFETIL] | > 20 µM | > 20 µM
CC(O)(C(N)=O)c1ccccc1 (stereo unspecified) [ATROLACTAMIDE] | > 20 µM | > 20 µM
CO[C@@]1(NC(=O)CSCC#N)C(=O)N2C(C(=O)O)=C(CSc3nnnn3C)CS[C@@H]21 [CEFMETAZOLE] | > 20 µM | > 20 µM
CCOC(=O)Cc1ccc(-c2ccccc2)cc1 | > 20 µM | > 20 µM
N[C@@H]1c2cccnc2[C@H](OC(=O)N2CCC(n3c(=O)[nH]c4ncccc43)CC2)CC[C@H]1c1cccc(F)c1F [RIMEGEPANT] | > 20 µM | > 20 µM
CN(C)CCCN1c2ccccc2Sc2ccc(Cl)cc21 [CHLORPROMAZINE] | > 20 µM | > 20 µM
COc1cc2c(c(OC)c1OC)-c1c(cc3c(c1OC)OCO3)C[C@H](C)[C@@](C)(O)C2 [BESIGOMSIN] | > 20 µM | > 20 µM
C=CC1=C(C)/C(=C/c2[nH]c(Cc3[nH]c(/C=C4\NC(=O)C(C)=C4C=C)c(C)c3CCC(=O)O)c(CCC(=O)O)c2C)NC1=O [BILIRUBIN] | > 20 µM | > 20 µM
CN1C(C(=O)Nc2ccccn2)=C(O)c2sccc2S1(=O)=O [TENOXICAM] | > 20 µM | > 20 µM
CN(C)CCCO[C@@H]1[C@H]2OC(C)(C)O[C@H]2O[C@@H]1[C@H](O)CO [AMIPRILOSE] | > 20 µM | > 20 µM
CC(=O)N[C@H](Cc1c[nH]c2ccccc12)C(=O)O | > 20 µM | > 20 µM
CNC(=O)Oc1ccc2c(c1)[C@]1(C)CCN(C)[C@@H]1N2C [PHYSOSTIGMINE] | > 20 µM | > 20 µM
CCCN(CCC)c1cc(C)nc2c(-c3cnc(N(C)C)cc3C)c(C)nn12 | > 20 µM | > 20 µM
CCC(O)(COC(N)=O)c1ccccc1 (stereo unspecified) [HYDROXYPHENAMATE] | > 20 µM | > 20 µM
Cc1cnc(NC(=O)Nc2cc(Br)c(C)cc2OC[C@@H]2CNCCO2)cn1 [RABUSERTIB] | > 20 µM | > 20 µM
Cc1ccc(OCC(O)C(C)NC(C)C)c2c1CCC2 (stereo unspecified) [ZENIDOLOL] | > 20 µM | > 20 µM
NS(=O)(=O)c1cc2c(cc1Cl)N=C(CSCc1ccccc1)NS2(=O)=O [BENZTHIAZIDE] | > 20 µM | > 20 µM
NC1(C(=O)N[C@@H](CCO)c2ccc(Cl)cc2)CCN(c2nc[nH]c3nccc2-3)CC1 [CAPIVASERTIB] | > 20 µM | > 20 µM

— ChEMBL document CHEMBL4651402, “Screening of ~5500 FDA-approved drugs and clinical candidates for anti-SARS-CoV-2 activity” (2021)
